Measurements from PMC5761851, “Application of a phenotypic drug discovery strategy to identify biological and chemical starting points for inhibition of TSLP production in lung epithelial cells” (PLoS ONE, 2018).
Where “and” joins values, the source holds several entries; their conditions need not be identical. Equal values may be shown once. Read-outs that look alike come from different tables or passages of the source.

What was measured:
AT1 = target: T1, AT1 (Homo sapiens, UniProt P30556); experiment: BioPrint panel: AT1 (h) (antagonist); type: binding; settings: 1 micromolar, read-out: percentage of inhibition of activity
T1 construct: purchased Eurofins Pharma Discovery Services (KinaseProfiler; Cerep BioPrint panel)
Text: (§1) Supplement pone.0189247.s004.xlsx, sheet "Bioprint Selectivity Panel" | column: %

ETB = target: T2, ETB (Homo sapiens, UniProt P24530); experiment: BioPrint panel: ETB (h) (agonist); type: binding; settings: 1 micromolar, read-out: percentage of inhibition of activity
T2 construct: purchased Eurofins Pharma Discovery Services (KinaseProfiler; Cerep BioPrint panel)
Text: as §1

GABAA1 (a1, b2, g2) = target: T3, GABAA1 (a1, b2, g2) (Homo sapiens, UniProt P14867+P47870); experiment: BioPrint panel: GABAA1 (h) (a1, b2, g2)(agonist); type: binding; settings: 1 micromolar, read-out: percentage of inhibition of activity
T3 construct: purchased Eurofins Pharma Discovery Services (KinaseProfiler; Cerep BioPrint panel)
Text: as §1

glucagon = target: T4, glucagon (Homo sapiens, UniProt P47871); experiment: BioPrint panel: glucagon (h) (agonist); type: binding; settings: 1 micromolar, read-out: percentage of inhibition of activity
T4 construct: purchased Eurofins Pharma Discovery Services (KinaseProfiler; Cerep BioPrint panel)
Text: as §1

NMDA = experiment: BioPrint panel: NMDA (antagonist); type: binding; settings: 1 micromolar
Text: as §1

TNF-alpha = experiment: BioPrint panel: TNF-alpha (h) (agonist); type: binding, human; settings: 1 micromolar
Text: as §1

H2 = target: T5, H2 (Homo sapiens, UniProt P25021); experiment: BioPrint panel: H2 (h) (antagonist); type: binding; settings: 1 micromolar, read-out: percentage of inhibition of activity
T5 construct: purchased Eurofins Pharma Discovery Services (KinaseProfiler; Cerep BioPrint panel)
Text: as §1

EP2 = target: T6, EP2 (Homo sapiens, UniProt P43116); experiment: BioPrint panel: EP2 (h) (agonist); type: binding; settings: 1 micromolar, read-out: percentage of inhibition of activity
T6 construct: purchased Eurofins Pharma Discovery Services (KinaseProfiler; Cerep BioPrint panel)
Text: as §1

IP (PGI2) = target: T7, IP (PGI2) (Homo sapiens, UniProt P43119); experiment: BioPrint panel: IP (PGI2) (h) (agonist); type: binding; settings: 1 micromolar, read-out: percentage of inhibition of activity
T7 construct: purchased Eurofins Pharma Discovery Services (KinaseProfiler; Cerep BioPrint panel)
Text: as §1

5-HT1D = target: T8, 5-HT1D (Rattus norvegicus, UniProt P28565); experiment: BioPrint panel: 5-HT1D (agonist); type: binding; settings: 1 micromolar, read-out: percentage of inhibition of activity
T8 construct: purchased Eurofins Pharma Discovery Services (KinaseProfiler; Cerep BioPrint panel)
Text: as §1

5-HT2A = target: T9, 5-HT2A (Homo sapiens, UniProt P28223); experiment: BioPrint panel: 5-HT2A (h) (agonist); type: binding; settings: 1 micromolar, read-out: percentage of inhibition of activity
T9 construct: purchased Eurofins Pharma Discovery Services (KinaseProfiler; Cerep BioPrint panel)
Text: as §1

Na+ channel (site 2) = experiment: BioPrint panel: Na+ channel (site 2) (antagonist); type: binding; settings: 1 micromolar
Text: as §1

dopamine transporter = target: T10, dopamine transporter (Homo sapiens, UniProt Q01959); experiment: BioPrint panel: dopamine transporter (h) (antagonist); type: binding; settings: 1 micromolar, read-out: percentage of inhibition of activity
T10 construct: purchased Eurofins Pharma Discovery Services (KinaseProfiler; Cerep BioPrint panel)
Text: as §1

CDK2 (cycA) = target: T11, CDK2 (cycA) (Homo sapiens, UniProt P24941); experiment: BioPrint panel: CDK2 (h) (cycA); type: biochemical; settings: 1 micromolar, read-out: percentage of inhibition of activity
T11 construct: purchased Eurofins Pharma Discovery Services (KinaseProfiler; Cerep BioPrint panel)
Text: as §1

LAD2 cells degranulation = experiment: Syk dependent LAD2 cells degranulation; type: cell-based, human
Experimental: Normal human bronchial epithelial cells (NHBE) (Lonza CC-2540,) corresponding to 2 different lots derived from 2 human healthy donors, henceforth referred to as donors #1 and #2, were purchased from Lonza, who provided the cells after obtaining permission for use in research applications by informed consent. Cells were cultured in 5% CO2 at 37°C according to the manufacturer´s instructions using Lonza´s Bronchial Epithelial Basal Medium (BEBM) (CC-3171) supplemented with Lonza´s Bronchial Epithelial Cell Growth Medium bullet kit (BEGM) (CC-4175), and grown in collagen coated T-75 and T-175 tissue culture flasks as required (Becton Dickinson 356485 and 356487). Subculturing after trypsinization and amplification was performed using Lonza´s reagent pack subculture reagents (CC-5034) following the manufacturer´s instructions. CHO-K1 and THP-1 cells were purchased from the ATCC through LGC standards (ATCC CCL-61 and TIB-202 respectively). The LAD2 cell line is a human mast cell line established at the National Institutes of Health (Bethesda, Maryland, U.S.).
Quantification of enzymatic p38 activity and p38-dependent TNF production in THP-1 cells was performed as previously described. Enzymatic Syk kinase activity assays and Syk dependent LAD2 cells degranulation assays were performed as previously described. PI3Kδ dependent pAkt phosphorylation in macrophage colony-stimulating factor (M-CSF) stimulated THP-1 cells was measured as previously described.

T6 sequence (P43116 whole entry): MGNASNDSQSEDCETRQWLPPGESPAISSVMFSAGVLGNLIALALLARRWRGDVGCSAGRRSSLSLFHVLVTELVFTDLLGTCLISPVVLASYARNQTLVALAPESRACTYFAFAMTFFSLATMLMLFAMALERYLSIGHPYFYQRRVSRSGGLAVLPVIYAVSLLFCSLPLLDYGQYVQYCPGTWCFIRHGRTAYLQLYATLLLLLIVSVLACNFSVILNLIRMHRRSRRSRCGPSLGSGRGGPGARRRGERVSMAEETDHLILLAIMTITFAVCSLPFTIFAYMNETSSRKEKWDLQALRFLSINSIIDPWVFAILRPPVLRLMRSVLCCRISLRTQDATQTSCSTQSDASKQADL
T7 sequence (P43119 whole entry): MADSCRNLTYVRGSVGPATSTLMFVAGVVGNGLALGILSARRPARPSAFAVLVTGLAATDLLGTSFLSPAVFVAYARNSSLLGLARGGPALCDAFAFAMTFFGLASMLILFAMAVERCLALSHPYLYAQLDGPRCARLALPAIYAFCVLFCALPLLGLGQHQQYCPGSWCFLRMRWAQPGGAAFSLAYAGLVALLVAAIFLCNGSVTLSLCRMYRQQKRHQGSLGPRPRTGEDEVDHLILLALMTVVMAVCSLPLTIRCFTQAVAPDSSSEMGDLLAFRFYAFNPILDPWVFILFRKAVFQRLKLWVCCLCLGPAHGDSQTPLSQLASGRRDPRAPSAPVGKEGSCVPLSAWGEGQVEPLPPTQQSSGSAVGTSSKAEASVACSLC
T9 sequence (P28223 whole entry): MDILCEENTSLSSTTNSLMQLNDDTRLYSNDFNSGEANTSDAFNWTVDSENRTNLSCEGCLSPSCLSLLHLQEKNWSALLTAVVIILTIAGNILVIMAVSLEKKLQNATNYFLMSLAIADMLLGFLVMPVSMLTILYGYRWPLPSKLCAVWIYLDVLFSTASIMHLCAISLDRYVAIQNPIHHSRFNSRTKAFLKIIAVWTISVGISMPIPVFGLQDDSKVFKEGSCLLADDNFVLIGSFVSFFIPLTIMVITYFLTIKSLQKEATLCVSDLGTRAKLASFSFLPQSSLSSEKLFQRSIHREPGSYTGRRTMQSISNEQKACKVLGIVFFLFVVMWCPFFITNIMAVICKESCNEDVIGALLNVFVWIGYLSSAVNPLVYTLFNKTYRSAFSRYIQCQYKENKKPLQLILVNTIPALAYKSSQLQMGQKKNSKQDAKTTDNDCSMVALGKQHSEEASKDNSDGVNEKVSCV
T5 sequence (P25021 whole entry): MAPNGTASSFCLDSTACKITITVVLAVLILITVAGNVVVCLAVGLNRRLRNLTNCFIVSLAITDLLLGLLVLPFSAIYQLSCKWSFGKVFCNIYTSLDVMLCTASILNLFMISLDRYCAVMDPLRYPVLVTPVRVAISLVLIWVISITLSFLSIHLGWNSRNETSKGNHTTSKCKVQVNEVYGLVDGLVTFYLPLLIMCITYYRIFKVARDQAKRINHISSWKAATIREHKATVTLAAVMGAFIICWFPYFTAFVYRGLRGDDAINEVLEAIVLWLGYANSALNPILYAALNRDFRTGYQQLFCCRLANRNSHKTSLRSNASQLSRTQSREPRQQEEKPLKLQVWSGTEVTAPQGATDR
T1 sequence (P30556 whole entry): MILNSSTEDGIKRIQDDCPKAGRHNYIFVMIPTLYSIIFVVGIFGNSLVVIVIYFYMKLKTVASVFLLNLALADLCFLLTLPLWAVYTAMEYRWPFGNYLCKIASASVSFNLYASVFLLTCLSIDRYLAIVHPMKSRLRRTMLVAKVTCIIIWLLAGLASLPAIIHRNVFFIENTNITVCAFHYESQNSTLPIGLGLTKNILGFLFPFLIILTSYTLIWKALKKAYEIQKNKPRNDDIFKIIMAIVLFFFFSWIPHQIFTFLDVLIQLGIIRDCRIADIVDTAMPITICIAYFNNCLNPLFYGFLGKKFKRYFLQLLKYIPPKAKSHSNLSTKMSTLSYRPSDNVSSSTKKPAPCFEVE
T4 sequence (P47871 26-477): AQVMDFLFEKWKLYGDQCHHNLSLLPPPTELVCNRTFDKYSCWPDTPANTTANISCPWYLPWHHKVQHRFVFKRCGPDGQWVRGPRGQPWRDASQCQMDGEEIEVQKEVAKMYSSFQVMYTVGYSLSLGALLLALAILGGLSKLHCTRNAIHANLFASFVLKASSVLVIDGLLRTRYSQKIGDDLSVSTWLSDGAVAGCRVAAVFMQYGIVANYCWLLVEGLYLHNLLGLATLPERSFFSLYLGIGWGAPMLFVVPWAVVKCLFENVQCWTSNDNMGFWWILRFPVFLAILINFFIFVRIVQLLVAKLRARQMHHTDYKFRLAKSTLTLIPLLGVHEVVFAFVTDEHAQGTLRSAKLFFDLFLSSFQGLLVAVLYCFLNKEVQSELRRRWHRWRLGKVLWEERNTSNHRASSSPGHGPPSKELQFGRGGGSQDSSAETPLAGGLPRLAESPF
T3 sequence (P14867 28-456): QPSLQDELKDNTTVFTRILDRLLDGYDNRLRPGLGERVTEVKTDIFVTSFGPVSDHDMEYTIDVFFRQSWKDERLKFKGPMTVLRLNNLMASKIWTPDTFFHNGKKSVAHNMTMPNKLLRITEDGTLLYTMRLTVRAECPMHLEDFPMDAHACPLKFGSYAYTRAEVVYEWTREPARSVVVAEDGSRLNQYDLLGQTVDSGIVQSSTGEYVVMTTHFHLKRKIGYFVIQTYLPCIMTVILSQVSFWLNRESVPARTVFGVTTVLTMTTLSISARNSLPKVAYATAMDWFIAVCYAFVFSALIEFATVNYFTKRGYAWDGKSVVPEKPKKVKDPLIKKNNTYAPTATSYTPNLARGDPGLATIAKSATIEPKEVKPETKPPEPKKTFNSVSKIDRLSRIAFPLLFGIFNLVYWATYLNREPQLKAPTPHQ
T3 sequence (P47870 25-512 limits assumed): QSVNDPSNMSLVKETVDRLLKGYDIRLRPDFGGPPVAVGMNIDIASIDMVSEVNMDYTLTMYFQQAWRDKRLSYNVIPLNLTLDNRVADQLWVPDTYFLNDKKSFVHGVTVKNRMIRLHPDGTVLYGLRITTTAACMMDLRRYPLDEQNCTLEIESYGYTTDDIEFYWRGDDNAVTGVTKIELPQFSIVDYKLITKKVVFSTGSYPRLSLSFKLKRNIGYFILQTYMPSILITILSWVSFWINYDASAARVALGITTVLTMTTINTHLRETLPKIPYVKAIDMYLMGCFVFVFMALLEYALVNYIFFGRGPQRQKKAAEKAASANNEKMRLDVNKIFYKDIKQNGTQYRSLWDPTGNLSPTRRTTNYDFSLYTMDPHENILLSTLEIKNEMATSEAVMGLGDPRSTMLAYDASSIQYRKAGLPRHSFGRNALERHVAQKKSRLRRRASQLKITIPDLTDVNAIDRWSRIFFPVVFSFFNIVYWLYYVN
T3 sequence (P18507 40-475 partner): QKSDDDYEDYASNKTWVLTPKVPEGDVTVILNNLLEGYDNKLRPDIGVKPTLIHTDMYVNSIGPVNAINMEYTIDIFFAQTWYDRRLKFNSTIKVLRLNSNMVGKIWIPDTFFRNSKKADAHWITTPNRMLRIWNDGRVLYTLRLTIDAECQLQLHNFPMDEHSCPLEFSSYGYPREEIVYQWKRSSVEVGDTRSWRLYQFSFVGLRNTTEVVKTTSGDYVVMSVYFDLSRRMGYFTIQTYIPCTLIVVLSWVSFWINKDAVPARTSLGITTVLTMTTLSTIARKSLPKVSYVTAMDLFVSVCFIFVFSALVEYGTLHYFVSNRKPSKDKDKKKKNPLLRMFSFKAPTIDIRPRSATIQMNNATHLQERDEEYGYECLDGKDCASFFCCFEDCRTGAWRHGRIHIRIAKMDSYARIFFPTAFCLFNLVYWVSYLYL
T10 sequence (Q01959 whole entry): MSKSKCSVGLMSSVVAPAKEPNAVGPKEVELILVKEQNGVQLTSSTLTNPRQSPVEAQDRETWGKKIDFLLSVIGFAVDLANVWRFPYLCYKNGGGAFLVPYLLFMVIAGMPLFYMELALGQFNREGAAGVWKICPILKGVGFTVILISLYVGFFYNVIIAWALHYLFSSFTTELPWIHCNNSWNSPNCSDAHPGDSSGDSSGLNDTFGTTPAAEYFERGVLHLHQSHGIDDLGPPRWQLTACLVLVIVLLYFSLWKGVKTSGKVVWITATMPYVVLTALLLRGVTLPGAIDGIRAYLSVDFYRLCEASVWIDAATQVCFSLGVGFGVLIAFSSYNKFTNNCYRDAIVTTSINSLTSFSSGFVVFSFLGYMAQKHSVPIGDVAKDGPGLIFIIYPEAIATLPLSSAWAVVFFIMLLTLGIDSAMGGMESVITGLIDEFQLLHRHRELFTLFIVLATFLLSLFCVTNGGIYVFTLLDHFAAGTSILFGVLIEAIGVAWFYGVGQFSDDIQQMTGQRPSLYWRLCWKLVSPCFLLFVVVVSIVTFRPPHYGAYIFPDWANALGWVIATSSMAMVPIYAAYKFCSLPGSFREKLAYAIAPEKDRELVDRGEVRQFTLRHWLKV
T2 sequence (P24530 27-442): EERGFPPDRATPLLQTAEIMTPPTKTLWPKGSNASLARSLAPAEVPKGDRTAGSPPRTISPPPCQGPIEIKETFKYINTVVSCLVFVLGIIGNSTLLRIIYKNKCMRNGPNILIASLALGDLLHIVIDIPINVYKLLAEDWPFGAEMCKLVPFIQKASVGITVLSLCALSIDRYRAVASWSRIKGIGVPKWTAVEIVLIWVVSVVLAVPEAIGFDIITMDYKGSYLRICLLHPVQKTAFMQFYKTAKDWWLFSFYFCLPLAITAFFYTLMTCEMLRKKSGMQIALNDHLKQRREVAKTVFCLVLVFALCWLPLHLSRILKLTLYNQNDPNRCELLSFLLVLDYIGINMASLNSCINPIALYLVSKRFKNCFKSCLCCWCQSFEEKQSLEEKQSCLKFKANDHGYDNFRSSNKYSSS

Row | Structure (SMILES) | inhibition at 1 µM (AT1) | inhibition at 1 µM (ETB) | inhibition at 1 µM (GABAA1 (a1, b2, g2)) | inhibition at 1 µM (glucagon) | percentage of inhibition of activity (NMDA) | percentage of inhibition of activity (TNF-alpha) | inhibition at 1 µM (H2) | inhibition at 1 µM (EP2) | inhibition at 1 µM (IP (PGI2)) | inhibition at 1 µM (5-HT1D) | inhibition at 1 µM (5-HT2A) | percentage of inhibition of activity (Na+ channel (site 2)) | inhibition at 1 µM (dopamine transporter) | inhibition at 1 µM (CDK2 (cycA)) | IC50 (LAD2 cells degranulation; Homo sapiens, LAD2, geometric mean, read-out: Activity in reference cell based assay (IC50, μM) (95% CI) LAD2 cells degranulation) | IC50 (LAD2 cells degranulation; individual values, read-out: Cellular activity (IC50, mM) LAD2 cells degranulation)
1 | Cn1cc(-c2cccc(-c3nc(C(=O)NC4C5CC6CC4CC(O)(C6)C5)c(N)nc3N)c2)cn1 (stereo not shown) [compound 4] | -6.4% | -6.7% | -16% | -8.3% | -6.8% | -2.1% | 0% | -23.9% | -5.1% | -8.1% | 2.4% | 29.7% | 7.5% | -7.9% | – | –
2 | CS(=O)(=O)N1CCN(c2ccc(Nc3ncc(C(N)=O)c(NC4CC4)n3)cc2)CC1 [compound 5] | – | – | – | – | – | – | – | – | – | – | – | – | – | – | 0.019 µM | 0.0341 µM and 0.015 µM and 0.0149 µM
